Legend:
Plasma protein binding = format: in vitro ADME, human
Description: Plasma protein binding was determined by rapid equilibrium dialysis. Plasma was freshly prepared from blood samples drawn in to EDTA (anticoagulant) containing tubes. Plasma was prepared using a table-top centrifuge and spun per instruction of the tube manufacturer and specifications (Beckton, Dickinson and Company, Franklin Lakes, NJ) and placed on ice prior to use.
Pooled plasma samples were centrifuged at 2000 rpm (approximately 1400g) for 15 min at 4 °C to remove debris. Approximately 90% of the clear supernatant fraction was transferred to a separate tube. Samples (500 μL) were then spiked with a 100× stock solution 100 μM, 0.5 mM, and 10 mM ETX1317 in DMSO respectively for 1, 5, and 100 μM final concentrations, transferred to the top of the filter chambers, and allowed to equilibrate for 15 min prior to centrifugation. The filtrate tubes were centrifuged at 14000g for 15 min at 4 °C. Next, 50 μL of the filtrate was precipitated with 300 μL of acetonitrile containing 250 ng/mL of carbutamide as the internal standard and the samples were analyzed by LC/MS/MS analysis.

[1] = system: Enterobacteriaceae isolates; test: Hollow-fiber and chemostat models, strains combined; format: cell-based, E. coli, K. pneumoniae
Description: The PK/PD driver of ETX1317 was assessed in the presence of CPD in both hollow-fiber[28]−[31] and chemostat[32]in vitro infection model systems. In all cases, CPD was administered q12h via a 2 h infusion and eliminated with a 2 h half-life, with the concentration of drug exceeding the MIC (the MIC of CPD in the presence of ETX1317 at a 1:2 ratio) for 50% of the dosing interval for each strain. Representative Emax plots are shown graphically for Escherichia coli ARC2687 in the hollow-fiber model and Klebsiella pneumoniae ARC4420 in the chemostat system (Figure 2). […] This could partially be attributed to the distribution of the concentration ranges utilized for the hollow-fiber infection model (HFIM) where most of the data scatter occurred in the efficacious dose range for lower MIC strains. It is important to note that initial evaluation of K. pneumoniae ARC4420 and ARC5118 was completed in the HFIM but rapid degradation of CPD, presumably through accumulation of β-lactamases in the extra-capillary space of the cartridge precluded a reliable assessment of the PK/PD driver with these strains in this model.[32] […] In both the HFIM and chemostat models the optimum critical threshold of ETX1317 was established through iterative Emax fitting of a range of ETX1317 concentrations from 0.5× to 2× the CPD:ETX1317 MIC value. In the HFIM, %Time > ETX1317 CT of 2× MIC provided the highest correlation to observed activity which appeared to be independent to the apparent intrinsic activity of ETX1317 (as reflected by ETX1317 MICBLI of K. pneumoniae ARC4486 vs ARC4488). […] In both models CPD infused alone mimicked vehicle control as expected with similar growth of +2 to 4 log10 CFU/mL.
PK/PD-derived exposure targets for BLIs have utilized various approaches for clinical dose setting. The use of a singular critical threshold value independent of MIC has been used for recent BL/BLI combinations such as ceftazidime/avibactam[34] aztreonam/avibactam,[35] but this has been problematic to correlate activity across a broad range of MICs. More recent work with ceftolozane/tazobactam[36] and other BLI combinations[37],[38] considers a critical threshold value that varies proportionally to the MIC value. […] Convergence of the data to a threshold value related to MIC simplifies dose setting and, in this case, appears to be consistent across a broad range of susceptibility (0.125–1 μg/mL).
Dose range and dose fractionation were performed in hollow-fiber infection model (HFIM) and chemostat (one-compartment) in vitro infection model. […] CPD concentrations were targeted to achieve exposure of ∼50%Time > MIC determined in the presence of ETX1317. […] Bacterial burden (CFU/mL) was serially assessed by sampling (500 μL) from the extra-capillary space of the HFIM cartridge at predetermined time points. […]

Structure (SMILES): CC1=C[C@@H](C(N)=O)N2C[C@@H]1N(O[C@H](F)C(=O)O)C2=O [ETX1317]
- Proportion unbound (Plasma protein binding; 1 µM): 82%
- Proportion unbound (Plasma protein binding; 5 µM): 99%
- Proportion unbound (Plasma protein binding; 100 µM): 80%
- growth ([1]; infused alone q12h to a Cmax of 16 μg/mL, 100%Time > MICBLI): +0.5 log
- % of dosing interval with unbound concentration > 2× MIC associated with reducing bacterial burden below stasis ([1]; with CPD): 50%
- % of dosing interval with concentration > 2× MIC for cidal activity ([1]; with CPD 50%Time > MIC, in vitro and in vivo models): 60%

From PMC7297445, “Pharmacokinetic/Pharmacodynamic Determination and Preclinical Pharmacokinetics of the β-Lactamase Inhibitor ETX1317 and Its Orally Available Prodrug ETX0282” (ACS Infectious Diseases, 2020)
